Assay results: patent publication US20210181109A1 (FUJIFILM Corporation, priority 2018, published 2021)

Legend:
[1] = NAC depletion percent, HPLC-fluorescence detection
Experimental: (§1) 1) To a 50 mL vessel, 11.6 mg (±0.1 mg) of NAC is weighed; to this, a 25 mL measuring pipet is used to add 20 mL of 100 mmol/L phosphate buffer (pH: 8.0); and the content is gently stirred using a test tube mixer to achieve dissolution (2 mmol/L). 2) To a 500 mL vessel, 149.5 mL of this buffer is added using a 50 mL measuring pipet; to this, 0.5 mL of the above-described 2 mmol/L NAC solution is added; and the content is mixed by inversion to achieve 300-fold dilution (6.667 μmon).
(§2) The test substance undiluted solution is defined as an “undiluted solution”, and used. Incidentally, this “undiluted solution” may be appropriately diluted to, for example, 1/10, 1/100, or 1/1000, using an appropriate solvent, and the resultant solution may be used.
(§3) Subsequently, the solution having the maximum dissolution concentration is defined as an “undiluted solution”, and tested. Incidentally, this “undiluted solution” may be appropriately diluted to, for example, 1/10, 1/100, or 1/1000, using an appropriate solvent, and the resultant solution may be used.
(§4) The test substance is prepared at 1 mmol/L in any of solvents that are water, acetonitrile, acetone, and a 5 mass % dimethyl sulfoxide (DMSO)/acetonitrile solution and used as a test substance solution. As the solvent, a solvent in which the test substance dissolves at 1 mmol/L is used; when the test substance is soluble in a plurality of solvents, the solvent is selected in the following order of decreasing precedence: water, acetonitrile, acetone, and 5 mass % DMSO/acetonitrile.
(§5) Test substance solutions are prepared on a 96-well plate (U96 PP-0.5 ML NATURAL, Thermo Fisher Scientific Inc. (NUNC)) mainly using a 12-channel pipette, and a reagent is added in accordance with the following formula.
(§6) Nucleophilic reagent (NAC and NAL): 150 μL
(§7) Test substance solution: 50 μL
(§8) The plate is tightly sealed using a plate sealing (Resistant embossed seal, SHIMADZU GLC Ltd.), and stirred using a plate shaker (Titramax 100, Heidolph Instruments GmbH & CO. KG). The plate is subjected to spinning down using a centrifuge, and then to incubation at 25° C., for 24 hours, in a light-shielded state.
(§9) After the incubation for 24 hours, the plate sealing is removed; to each sample, 50 µL of the reaction stopping solution is added to stop the reaction.
(§10) The HPLC measurement conditions for the nucleophilic reagents are as follows.
(§11) From the average values (each, n=3) of peak areas of the post-reaction unreacted NAC or NAL and the blank-test (after performing the reaction step without addition of the test substances) NAC or NAL, the following formula is used to calculate the depletion percent of NAC or NAL.
(§12) NAC depletion percent (% depletion)=[1−(Average value of peak areas of post-reaction unreacted NAC/Average value of peak areas of blank-test (after performing the reaction step without addition of the test substances) NAC)]×100
(§13) The average value of peak areas of the post-reaction unreacted NAC is the average value of areas obtained by measuring three times post-reaction unreacted NAC. The average value of peak areas of blank-test (after performing the reaction step without addition of the test substances) NAC is the average value of areas obtained by measuring three times blank-test (after performing the reaction step without addition of the test substances) NAC.
(§14) The reactions were each performed on a 96-well plate, and the number of samples of each case was set to n=3. In addition, as controls, reaction solutions including the solvent alone were prepared. The reaction solutions were prepared so as to have a NAC or NAL concentration of 5 μmon. To the reaction solutions after the lapse of 24 hours, a trifluoroacetic acid (TFA) aqueous solution was added such that the final concentration became 0.5% (v/v) TFA. Subsequently, HPLC was performed for measurements by two detection methods that were light absorption detection using a photodiode array (PDA) detector, and fluorescence detection using a fluorescence detector.

[2] = NAL depletion percent, HPLC-fluorescence detection
Experimental: as §1, with “12.6” for “11.6”, “NAL” for “NAC”, “10.2);” for “8.0);”, “mixture” for “mixer”, “mmol/L NAL solution).” for “mmol/L).”, “μmol/L).” for “μmon).”
as §2, §3, §4, §5, §6, §7, §8, §9, §10, §11
(§15) NAL depletion percent (% depletion)=[1−(Average value of peak areas of post-reaction unreacted NAL/Average value of peak areas of blank-test (after performing the reaction step without addition of the test substances) NAL)]×100
(§16) The average value of peak areas of post-reaction unreacted NAL is the average value of areas obtained by measuring three times post-reaction unreacted NAL. The average value of peak areas of blank-test (after performing the reaction step without addition of the test substances) NAL is the average value of areas obtained by measuring three times blank-test (after performing the reaction step without addition of the test substances) NAL.
as §14

[3] = Average score of NAC and NAL depletion and prediction of skin allergenicity, fluorescence method; details: for Average score: test substance solution 1 mmol/L
Experimental: (§17) The average value (Average Score) of NAC and NAL depletion percents is calculated. In the resultant value, the second decimal place is rounded off.
(§18) Average value (Average Score) of NAC and NAL depletion percents=(NAC depletion percent+NAL depletion percent)/2
(§19) The depletion percent of at least one of NAC or NAL or the average score of the depletion percents of NAC and NAL is calculated, and whether or not the test substances are “allergenic substances” or “non-allergenic substances” is determined:
(§20) (1) in a case of performing evaluation based on the average value of the depletion percent of NAC and the depletion percent of NAL,
(§21) In the following Tables, S represents as being an allergenic substance and NS represents as being a non-allergenic substance.

[4] = NAC depletion percent, HPLC-UV detection (281 nm); details: Reference (UV method)
Experimental: as §1, §2, §3, §4, §5, §6, §7, §8, §9, §10, §11, §12, §13, §14

[5] = NAL depletion percent, HPLC-UV detection (281 nm); details: Reference (UV method)
Experimental: as §1, with “12.6” for “11.6”, “NAL” for “NAC”, “10.2);” for “8.0);”, “mixture” for “mixer”, “mmol/L NAL solution).” for “mmol/L).”, “μmol/L).” for “μmon).”
as §2, §3, §4, §5, §6, §7, §8, §9, §10, §11, §15, §16, §14

[6] = Average score of NAC and NAL depletion and prediction of skin allergenicity, UV method; details: Reference (UV method); for Average score: test substance solution 1 mmol/L
Experimental: as §17, §18, §19, §20, §21

[7] = Fluorescence method, non-allergenic substance
[8] = Fluorescence method, skin allergenicity prediction
[9] = single substance, test substance solution 1 mmol/L, fluorescence method
[10] = single substance, fluorescence method
[11] = single substance, test substance solution 1 mmol/L
[12] = single substance, fluorescence method, criterion average score […]
[13] = single substance, criterion average score […]

CCCCCCCCCCCCCC(=O)OC(C)C [Isopropyl myristate]
NAC depletion (%) [1, 7]: 0.4%
NAL depletion (%) [2, 7]: 5.8%
Prediction result [3, 8]: NS (NS represents as being a non-allergenic substance)
NAC depletion (%) ([4]; non-allergenic substance): 0.0%
NAL depletion (%) ([5]; non-allergenic substance): 1.8%
Prediction result ([6]; skin allergenicity prediction): NS (NS represents as being a non-allergenic substance)

OCC(O)CO [Glycerol]
NAC depletion (%) [1, 7]: 0.2%
NAL depletion (%) [2, 7]: 0.0%
Prediction result [3, 8]: NS (NS represents as being a non-allergenic substance)
NAC depletion (%) ([4]; non-allergenic substance): 0.3%
NAL depletion (%) ([5]; non-allergenic substance): 0.7%
Prediction result ([6]; skin allergenicity prediction): NS (NS represents as being a non-allergenic substance)

O=C(OCc1ccccc1)c1ccccc1 [Benzyl benzoate]
NAC depletion (%) [1, 9]: 0.0%
NAL depletion (%) [2, 9]: 0.3%
Average score [3, 10]: 0.1%
NAC depletion (%) [4, 11]: 0.0%
NAL depletion (%) [5, 11]: 2.8%
Average score ([6]; single substance): 1.4%

CC(=O)C(=O)CC(C)C [5-Methyl-2,3-hexanedione]
NAC depletion (%) [1, 9]: 14.8%
NAL depletion (%) [2, 9]: 26.1%
Prediction result [3, 12]: S (S represents as being an allergenic substance)
Average score [3, 10]: 20.4%
NAC depletion (%) [4, 11]: 6.4%
NAL depletion (%) [5, 11]: 34.8%
Prediction result [6, 13]: S (S represents as being an allergenic substance)
Average score ([6]; single substance): 20.6%

CCOC(=O)c1ccccc1C(=O)OCC [Diethyl phthalate]
NAC depletion (%) [1, 7]: 0.0%
NAL depletion (%) [2, 7]: 0.2%
Prediction result [3, 8]: NS (NS represents as being a non-allergenic substance)
NAC depletion (%) ([4]; non-allergenic substance): 0.0%
NAL depletion (%) ([5]; non-allergenic substance): 1.7%
Prediction result ([6]; skin allergenicity prediction): NS (NS represents as being a non-allergenic substance)

Cc1ccc2oc(=O)ccc2c1 [6-Methylcoumarin]
NAC depletion (%) [1, 7]: 1.3%
NAL depletion (%) [2, 7]: 0.1%
Prediction result [3, 8]: NS (NS represents as being a non-allergenic substance)
NAC depletion (%) ([4]; non-allergenic substance): 0.0%
NAL depletion (%) ([5]; non-allergenic substance): 1.0%
Prediction result ([6]; skin allergenicity prediction): NS (NS represents as being a non-allergenic substance)

CC(O)CO (stereo not shown) [Propylene glycol]
NAC depletion (%) [1, 7]: 0.7%
NAL depletion (%) [2, 7]: 5.0%
Prediction result [3, 8]: NS (NS represents as being a non-allergenic substance)
NAC depletion (%) ([4]; non-allergenic substance): 0.1%
NAL depletion (%) ([5]; non-allergenic substance): 2.2%
Prediction result ([6]; skin allergenicity prediction): NS (NS represents as being a non-allergenic substance)

COC(=O)c1ccc(O)cc1 [Methylparaben]
NAC depletion (%) [1, 7]: 0.7%
NAL depletion (%) [2, 7]: 4.7%
Prediction result [3, 8]: NS (NS represents as being a non-allergenic substance)
NAC depletion (%) ([4]; non-allergenic substance): 0.1%
NAL depletion (%) ([5]; non-allergenic substance): 1.3%
Prediction result ([6]; skin allergenicity prediction): NS (NS represents as being a non-allergenic substance)

CCCCCCCC(=O)O [Octanoic acid]
NAC depletion (%) [1, 7]: 0.0%
NAL depletion (%) [2, 7]: 0.0%
Prediction result [3, 8]: NS (NS represents as being a non-allergenic substance)
NAC depletion (%) ([4]; non-allergenic substance): 0.0%
NAL depletion (%) ([5]; non-allergenic substance): 1.2%
Prediction result ([6]; skin allergenicity prediction): NS (NS represents as being a non-allergenic substance)

COc1cc(C=O)ccc1O [Vanillin]
NAC depletion (%) [1, 7]: 2.0%
NAL depletion (%) [2, 7]: 0.0%
Prediction result [3, 8]: NS (NS represents as being a non-allergenic substance)
NAC depletion (%) ([4]; non-allergenic substance): 1.5%
NAL depletion (%) ([5]; non-allergenic substance): 1.9%
Prediction result ([6]; skin allergenicity prediction): NS (NS represents as being a non-allergenic substance)

Nc1ccc(S(N)(=O)=O)cc1 [Sulfanilamide]
NAC depletion (%) [1, 7]: 0.5%
NAL depletion (%) [2, 7]: 3.6%
Prediction result [3, 8]: NS (NS represents as being a non-allergenic substance)
NAC depletion (%) ([4]; non-allergenic substance): 0.0%
NAL depletion (%) ([5]; non-allergenic substance): 1.4%
Prediction result ([6]; skin allergenicity prediction): NS (NS represents as being a non-allergenic substance)

CC(O)C(=O)O (stereo not shown) [Lactic acid]
NAC depletion (%) [1, 7]: 1.4%
NAL depletion (%) [2, 7]: 0.0%
Prediction result [3, 8]: NS (NS represents as being a non-allergenic substance)
NAC depletion (%) ([4]; non-allergenic substance): 0.0%
NAL depletion (%) ([5]; non-allergenic substance): 2.8%
Prediction result ([6]; skin allergenicity prediction): NS (NS represents as being a non-allergenic substance)

Oc1cccc(O)c1 [Resorcinol]
NAC depletion (%) [1, 9]: 0.8%
NAL depletion (%) [2, 9]: 1.6%
Prediction result [3, 12]: NS (NS represents as being a non-allergenic substance)
Average score [3, 10]: 1.2%
NAC depletion (%) [4, 11]: 4.0%
NAL depletion (%) [5, 11]: 2.2%
Prediction result [6, 13]: NS (NS represents as being a non-allergenic substance)
Average score ([6]; single substance): 3.1%

O=C(O)c1ccccc1O [Salicylic acid]
NAC depletion (%) [1, 7]: 0.1%
NAL depletion (%) [2, 7]: 4.3%
Prediction result [3, 8]: NS (NS represents as being a non-allergenic substance)
NAC depletion (%) ([4]; non-allergenic substance): 0.0%
NAL depletion (%) ([5]; non-allergenic substance): 0.4%
Prediction result ([6]; skin allergenicity prediction): NS (NS represents as being a non-allergenic substance)

CC(=O)C1CCCCC1=O (stereo not shown) [2-Acetylcyclohexanone]
NAC depletion (%) [1, 7]: 3.5%
NAL depletion (%) [2, 7]: 0.0%
Prediction result [3, 8]: NS (NS represents as being a non-allergenic substance)
NAC depletion (%) ([4]; non-allergenic substance): 1.3%
NAL depletion (%) ([5]; non-allergenic substance): 0.3%
Prediction result ([6]; skin allergenicity prediction): NS (NS represents as being a non-allergenic substance)
